Measurements reported in PubChem BioAssay (NCI).
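The compound was tested at five concentrations on cells cultured in 96-well plates, with a 48-hour exposure period. Here, GI50 denotes the concentration required for 50% inhibition of growth. TGI denotes the concentration required for complete inhibition of growth.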

Tests used:
Test in all cases: DTP human tumour cell line panel, 48 h
HCT-116 colon = test system: HCT-116 colon
HCC-2998 colon = test system: HCC-2998 colon
SNB-19 CNS = test system: SNB-19 CNS
HOP-62 NSCLC = test system: HOP-62 NSCLC
OVCAR-5 ovarian = test system: OVCAR-5 ovarian
MCF7 breast = test system: MCF7 breast
SNB-75 CNS = test system: SNB-75 CNS
K-562 leukemia = test system: K-562 leukemia
U251 CNS = test system: U251 CNS
RXF 393 renal = test system: RXF 393 renal
SK-MEL-5 melanoma = test system: SK-MEL-5 melanoma
CAKI-1 renal = test system: CAKI-1 renal

Compound	TGI (HCT-116 colon) [µM]	TGI (HCC-2998 colon) [µM]	TGI (SNB-19 CNS) [µM]	TGI (HOP-62 NSCLC) [µM]	TGI (OVCAR-5 ovarian) [µM]	TGI (MCF7 breast) [µM]	TGI (SNB-75 CNS) [µM]	TGI (K-562 leukemia) [µM]	TGI (U251 CNS) [µM]	TGI (RXF 393 renal) [µM]	TGI (SK-MEL-5 melanoma) [µM]	GI50 (OVCAR-5 ovarian) [µM]	GI50 (CAKI-1 renal) [µM]	TGI (CAKI-1 renal) [µM]	GI50 (SNB-75 CNS) [µM]	GI50 (RXF 393 renal) [µM]	GI50 (HOP-62 NSCLC) [µM]	GI50 (MCF7 breast) [µM]	GI50 (K-562 leukemia) [µM]	GI50 (SK-MEL-5 melanoma) [µM]
Cc1ccc2nc3c(C(=O)NCCN(C)C)cccc3cc2c1	6.71	14.8	6.34	7.05	5.64	11.6	8.26	7.83	11.7	7.02	3.41	–	–	–	–	–	–	–	–	–
CSc1ccc2c(c1)c(CCN)c(C)n2Cc1ccc(Cl)c(Cl)c1	–	–	–	–	3.13	–	2.6	–	–	3.12	–	1.51	1.82	3.85	1.32	1.66	–	–	–	–
CCCS(=O)(=O)O	–	–	> 100	> 100	> 100	> 100	> 100	> 100	> 100	> 100	> 100	–	–	> 100	–	–	–	–	–	–
CN(c1c(Cl)cccc1Cl)S(=O)(=O)c1ccccc1[N+](=O)[O-]	> 100	> 100	> 100	> 100	> 100	> 100	> 100	–	> 100	> 100	–	–	–	> 100	–	–	–	–	–	–
CN1CCc2c(sc3nc(Nc4ccccc4)n(N)c(=O)c23)C1	> 100	–	> 100	> 100	> 100	> 100	–	> 100	–	> 100	> 100	–	–	> 100	–	–	–	–	–	–
O=C(NC(=O)c1cn(CCN2CCNCC2)c(=O)[nH]c1=O)OCc1ccccc1	> 100	–	–	> 100	> 100	–	> 100	> 100	> 100	–	> 100	–	–	> 100	–	–	–	–	–	–
O=C(N/N=C(/COc1cccc(Cl)c1)N=Cc1ccncc1)c1ccncc1	> 100	> 100	> 100	> 100	> 100	> 100	–	> 100	> 100	> 100	–	–	–	> 100	–	–	–	–	–	–
CSC1=N/C(=C\c2cccs2)C(=O)N1CN1CCOCC1	> 100	–	> 100	> 100	> 100	> 100	> 100	> 100	> 100	–	> 100	–	–	–	–	–	–	–	–	–
C1CNCCN2CCCNCCN(C1)CC2	> 100	–	> 100	> 100	> 100	> 100	> 100	–	> 100	> 100	> 100	–	–	> 100	–	–	–	–	–	–
O=[N+]([O-])c1cc2n[nH]nc2c2nonc12	43.7	38.7	> 100	> 100	76.5	21.5	> 100	> 100	> 100	–	24.7	–	–	77.7	–	–	–	–	–	–
O=C(ON=c1c2ccccc2ccc2ccccc12)c1cc([N+](=O)[O-])cc([N+](=O)[O-])c1	> 100	> 100	> 100	> 100	> 100	> 100	> 100	> 100	> 100	> 100	> 100	–	–	–	–	–	–	–	–	–
COC1/C=C\C=C(/C)C(=O)NC2=CC(=O)C=C(C2=O)C(OC)C(C)CC(OC)C(OC)C(C)/C=C(/C)C1OC(N)=O (stereo not drawn)	10.3	15.9	30.7	8.05	28.8	8.37	31.6	1.44	25.8	–	20.9	–	–	26.3	–	–	–	–	–	–
Nc1[nH]c(=O)nc2sc3c(c12)CCCC3	> 100	> 100	> 100	> 100	> 100	> 100	64.4	> 100	> 100	> 100	> 100	–	–	–	–	–	–	–	–	–
O=c1oc2ncccc2n1Cc1ccc([N+](=O)[O-])cc1	> 100	–	–	> 100	> 100	> 100	> 100	> 100	> 100	> 100	> 100	–	–	> 100	–	–	–	–	–	–
CN(C)C(=S)Nc1nnc(NC23CC4CC(CC(C4)C2)C3)s1	33	35.5	41.2	33.9	–	–	–	> 100	25.3	34.1	–	–	–	68.8	–	–	–	–	–	–
Cc1nn2c(N)cc(=O)nc2nc1/C=C/c1ccc(N(C)C)cc1	> 100	23.3	> 100	> 100	> 100	> 100	–	> 100	> 100	> 100	> 100	–	–	> 100	–	–	–	–	–	–
NC(CCCCCP(=O)(O)O)C(=O)O (stereo not drawn)	> 100	> 100	> 100	–	> 100	–	> 100	> 100	> 100	> 100	> 100	–	–	> 100	–	–	–	–	–	–
C=CCCCCOC1C=CC(OC(C)=O)C(COC(C)=O)O1 (stereo not drawn)	> 100	> 100	> 100	> 100	> 100	> 100	–	–	> 100	> 100	> 100	–	–	> 100	–	–	–	–	–	–
CN(Cc1cnc2nc(N)nc(N)c2n1)c1ccc(C(=O)NC(CCS(=O)(=O)O)C(=O)O)cc1 (stereo not drawn)	–	> 100	> 100	> 100	–	> 100	> 100	–	–	–	> 100	–	–	> 100	96	–	–	–	–	–
O=C(N=Nc1ccc([N+](=O)[O-])cc1)NNc1ccc([N+](=O)[O-])cc1	30.3	27.3	> 100	34	48	22.9	79.9	45.8	59.7	–	31.2	–	–	> 100	–	–	–	–	–	–
NCCCNCCSSCc1ccccc1CSSCCNCCCN	–	> 100	> 100	> 100	> 100	–	70	> 100	> 100	> 100	> 100	–	–	> 100	–	–	–	–	–	–

Compound	TGI (HCT-116 colon) [µM]	TGI (HCC-2998 colon) [µM]	TGI (SNB-19 CNS) [µM]	TGI (HOP-62 NSCLC) [µM]	TGI (OVCAR-5 ovarian) [µM]	TGI (MCF7 breast) [µM]	TGI (SNB-75 CNS) [µM]	TGI (K-562 leukemia) [µM]	TGI (U251 CNS) [µM]	TGI (RXF 393 renal) [µM]	TGI (SK-MEL-5 melanoma) [µM]	GI50 (OVCAR-5 ovarian) [µM]	GI50 (CAKI-1 renal) [µM]	TGI (CAKI-1 renal) [µM]	GI50 (SNB-75 CNS) [µM]	GI50 (RXF 393 renal) [µM]	GI50 (HOP-62 NSCLC) [µM]	GI50 (MCF7 breast) [µM]	GI50 (K-562 leukemia) [µM]	GI50 (SK-MEL-5 melanoma) [µM]
CCN(CC)CCNc1ccc([N+](=O)[O-])c2nc3ccccc3c(N)c12	1.5	–	–	> 10	5.26	–	2.39	1.75	> 10	1.52	1.1	–	–	> 10	–	–	–	–	–	–
OC(c1cc(C(O)(C(F)(F)F)C(F)(F)F)ncn1)(C(F)(F)F)C(F)(F)F	> 10	> 10	> 10	> 10	–	> 10	> 10	> 10	> 10	> 10	> 10	–	–	> 10	–	–	–	–	–	–
NNC(N)=Nc1cccc2ccccc12	> 100	> 100	> 100	> 100	> 100	> 100	> 100	> 100	> 100	> 100	> 100	–	–	–	–	–	–	–	–	–
ON=C1CCCCC(=NO)CCCC1	> 100	> 100	> 100	–	–	> 100	> 100	> 100	> 100	–	> 100	–	–	> 100	–	–	–	–	–	–
CCCCc1ccc(Nc2nc3c(ncn3C3OC(COC(C)=O)C(OC(C)=O)C3OC(C)=O)c(=O)[nH]2)cc1 (stereo not drawn)	31.9	35.5	81.5	35.5	> 100	63.2	–	38.5	45.4	41.7	31.1	–	–	> 100	–	–	–	–	–	–
N#CS/C(C(Cl)=C(Cl)Cl)=C(/Cl)[N+](=O)[O-]	3	34.6	49.4	33.4	–	29.3	52	1.62	30	2.98	6.37	–	–	2.42	–	–	–	–	–	–
Clc1cc2nc(C3CCCO3)[nH]c2cc1Cl (stereo not drawn)	> 100	> 100	> 100	> 100	> 100	> 100	> 100	> 100	> 100	> 100	> 100	–	–	–	–	–	–	–	–	–
CCN(CC)CCN1C(=O)c2cccc3c(-c4ccc5c(c4)ncn5C4CCCCC4)ccc(c23)C1=O	–	–	–	3.05	4.04	4.65	2.4	3.97	–	–	2.61	1.72	1.71	5.45	1.05	–	1.46	1.74	0.476	1.32
CC(/C=C/c1ncccc1OCCCCCC(=O)O)=N\NC1=NCCN1	> 100	> 100	> 100	> 100	> 100	–	–	> 100	–	> 100	–	–	–	> 100	–	–	–	–	–	–
CCCCCCc1nn2c(-c3ccc(C)cc3)nnc2s1	> 100	–	> 100	> 100	> 100	> 100	> 100	> 100	> 100	> 100	> 100	–	–	> 100	–	–	–	–	–	–
NS(=O)(=O)c1nnc(NC(=O)CCC(=O)O)s1	> 100	> 100	> 100	> 100	> 100	> 100	–	> 100	> 100	> 100	> 100	–	–	> 100	–	–	–	–	–	–
CCOC(=O)C(SCCO)C(C(=O)OCC)n1ccc(N)nc1=O (stereo not drawn)	> 100	> 100	> 100	> 100	> 100	> 100	> 100	> 100	> 100	–	> 100	–	–	> 100	–	–	–	–	–	–
c1ccc(Cc2cccc3cc(-c4ccc(-c5ccccc5)cc4)[nH]c23)cc1	> 100	> 100	> 100	> 100	> 100	> 100	> 100	–	> 100	–	> 100	–	–	> 100	–	–	–	–	–	–
CC(=O)OCC1C(C(C)OC(C)=O)CCC2C1CCC1(C)C(OC(C)=O)CCC21 (stereo not drawn)	29.2	33.5	42.5	38.5	> 100	33.8	–	36.8	30.5	–	30.6	–	–	> 100	–	–	–	–	–	–
CN(C)c1nc(N(C)C)nc(N(C)CN(C)c2ccccc2)n1	> 100	> 100	> 100	–	–	–	> 100	> 100	> 100	> 100	> 100	–	–	–	–	–	–	–	–	–
COc1cc(Cn2c3c(c4c(CN(C)C)c(O)ccc42)C(=O)c2ccccc2C3=O)cc(OC)c1	31.1	34.5	36.9	30.9	42.5	29.4	8.07	36.8	36.8	–	26	–	–	30.4	–	–	–	–	–	–
Cn1c(-c2ccccc2)cc(-c2ccc3c(c2)OCO3)c1-c1cccs1	> 100	> 100	> 100	> 100	> 100	> 100	> 100	> 100	> 100	> 100	> 100	–	–	–	–	–	–	–	–	–
O=C(Nc1ccc(Cl)cc1)c1cc(S(=O)(=O)Nc2n[nH]c(=O)[nH]2)c(SSc2cc(Cl)c(C(=O)Nc3ccc(Cl)cc3)cc2S(=O)(=O)Nc2n[nH]c(=O)[nH]2)cc1Cl	> 100	> 100	> 100	> 100	> 100	> 100	> 100	> 100	> 100	–	> 100	–	–	> 100	–	–	–	–	–	–
CC1=CC(c2ccccc2)OP1(=O)c1ccccc1 (stereo not drawn)	> 100	> 100	> 100	> 100	> 100	> 100	> 100	> 100	> 100	–	> 100	–	–	> 100	–	–	–	–	–	–
Cc1cccc2c1Oc1cc(Cl)ccc1C2NC(=O)CCN1CCCCC1 (stereo not drawn)	32.1	28.3	33	28.3	31.9	33.6	28.1	32	29.5	–	30	–	–	–	–	–	–	–	–	–
C=C1c2nc3ccccc3n2C=C(c2ccc(Cl)cc2)N1c1ccc(OCCN2CCOCC2)cc1	> 100	> 100	> 100	> 100	> 100	> 100	> 100	> 100	> 100	> 100	71.5	–	–	–	–	–	–	–	–	–
